Reference: patent US8445636B2, “Antimicrobial and anticancer lipopeptides” (Yeda Research & Development Co. Ltd., priority 2003, dated 2013)
≈ marks a conversion by molar mass, not a printed value. Non-standard residues stand in square brackets, D forms with d. Residues, ends and D or L forms follow the SMILES beside them. *: point of attachment. Palmitoyl = CCCCCCCCCCCCCCCC(=O)*; Undecanoyl = CCCCCCCCCCC(=O)*

Columns and labels:
Format in all cases: cell-based
[1] = tested on: Escherichia coli ATCC 25922
Procedure, shortened: (§1)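 LB, pH 7.4 default (5.5 optional, adjusted with HCl/NaOH); inoculum suspension 1×10^6 CFU/ml, added 1:1 to 2-fold lipopeptide dilutions in water; 37° C, 18-20 h; OD600; MIC = 100% inhibition.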

[2] = tested on: Pseudomonas aeruginosa ATCC 27853
Procedure, shortened: as §1

[3] = tested on: Staphylococcus aureus ATCC 6538P
Procedure, shortened: as §1

[4] = tested on: B. subtilis ATCC 6051; details: ATCC 6051
[5] = tested on: Candida albicans ATCC 10231; assay: microbe, parasite or virus in culture
Procedure, shortened: (§2)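 Broth microdilution in RPMI 1640/0.165 M MOPS, 1×10^4 CFU/ml inoculum, 2-fold serial lipopeptide dilutions in water, pH 7.4 unless stated (pH 5.5 alternative). Incubated 24–48 h at 35 °C with agitation; growth read at A620. MIC = lowest concentration giving 100% growth inhibition.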

[6] = tested on: Cryptococcus neoformans ATCC MYA-422; assay: microbe, parasite or virus in culture; details: Table 17, D-magainin analog; mean of 3 experiments, standard deviation of 25%; read-out: Minimal Inhibitory Concentration, Cyrptococcus neoformans (ATCC MYA-422)
[7] = tested on: Aspergillus fumigatus ATCC 26430; assay: microbe, parasite or virus in culture
[8] = tested on: human red blood cells (hRBC); assay: Hemolytic activity, release of hemoglobin at 540 nm
Experimental: Fresh human red blood cells (hRBC) with EDTA were rinsed 3 times with PBS (35 mM phosphate buffer/0.15 M NaCl, pH 7.3) by centrifugation for 10 min at 800 g and resuspended in PBS. Peptides dissolved in PBS were then added to 50 μl of a solution of the stock hRBC in PBS to reach a final volume of 100 μl (final erythrocyte concentration, 4% v/v). The resulting suspension was incubated under agitation for 60 min at 37° C. The samples were then centrifuged at 800×g for 10 min. Release of hemoglobin was monitored by measuring the absorbance of the supernatant at 540 nm. Controls for zero hemolysis (blank) and 100% hemolysis consisted of hRBC suspended in PBS and Triton 1%, respectively.

[9] = tested on: Acinetobacter baumannii ATCC 19606; details: Table 4; pH 7.4
Procedure, shortened: as §1

[10] = tested on: Enterobacter cloacae ATCC 49141; details: Table 4; pH 7.4
Procedure, shortened: as §1

[11] = tested on: Enterococcus faecalis ATCC 29212; details: Table 4; pH 7.4
Procedure, shortened: as §1

[12] = tested on: Cryptococcus neoformans ATCC 66031; assay: microbe, parasite or virus in culture; details: Table 10; pH 7.4
Procedure, shortened: as §2

| Compound | Minimal Inhibitory Concentration, E. coli (ATCC 25922) ([1]; ATCC 25922) [µM] | Minimal Inhibitory Concentration, P. aeruginosa ATCC 27853 ([2]; ATCC 27853) [µM] | Minimal Inhibitory Concentration, S. aureus ATCC 6538P ([3]; ATCC 6538) [µM] | Minimal Inhibitory Concentration, B. subtilis (ATCC 6051) [4] [µM] | MIC ([5]; ATCC 10231, read-out: Minimal Inhibitory Concentration, Candida Albicans (ATCC 10231)) [µM] | MIC [6] [µM] | Minimal Inhibitory Concentration, Aspergillus fumigatus (ATCC 26430) ([7]; ATCC 26430) [µM] | % of Hemolytic activity at maximal MIC ([8]; human) [%] | Minimal Inhibitory Concentration, A. Baumaannii [9] [µM] | Minimal Inhibitory Concentration, E. cloacae [10] [µM] | Minimal Inhibitory Concentration, E. faecalis [11] [µM] | Minimal Inhibitory Concentration, E. coli ([1]; Table 4, pH 7.4) [µM] | Minimal Inhibitory Concentration, P. Aeruginosa ([2]; Table 4, pH 7.4) [µM] | Minimal Inhibitory Concentration, S. aureus ([3]; Table 4, pH 7.4) [µM] | Minimal Inhibitory Concentration, C. albicans ATCC 10231 ([5]; Table 10, pH 7.4) [µM] | Minimal Inhibitory Concentration, C. neoformans ATCC 66031 [12] [µM] | Minimal Inhibitory Concentration, A. fumigatus ATCC 26430 ([7]; Table 10, pH 7.4) [µM] | hemolytic activity ([8]; at concentrations lower than 12 μM, human red blood cells (FIGS. 1-5)) |
| --- | --- | --- | --- | --- | --- | --- | --- | --- | --- | --- | --- | --- | --- | --- | --- | --- | --- | --- |
| CCCCCCCCCCC(=O)NCC(=O)N[C@H](C(=O)NCC(=O)N[C@@H](CCCCN)C(=O)N[C@@H](Cc1ccccc1)C(=O)N[C@H](CC(C)C)C(=O)N[C@@H](Cc1c[nH]cn1)C(=O)N[C@@H](CO)C(=O)N[C@@H](C)C(=O)N[C@H](CCCCN)C(=O)N[C@@H](CCCCN)C(=O)N[C@@H](Cc1c[nH]c2ccccc12)C(=O)NCC(=O)N[C@@H](CCCCN)C(=O)N[C@@H](C)C(=O)N[C@H](Cc1ccccc1)C(=O)N[C@H](C(=O)NCC(=O)N[C@H](CCC(=O)O)C(=O)N[C@H](C(=O)N[C@@H](CCSC)C(=O)N[C@@H](CC(N)=O)C(=O)N[C@@H](CO)C(N)=O)[C@@H](C)CC)C(C)C)[C@@H](C)CC [[D]4magainin-UA] (Undecanoyl-GIGKF[dL]HSA[dK]KWGKA[dF]VG[dE]IMNS-NH2) | >50 | 50 | 50 | 6.25 | >50 | 6.25 (≈ 16.7 µg/mL) | >50 | 2 | – | – | – | – | – | – | – | – | – | – |
| CCCCCCCCCCCCCCCC(=O)N[C@@H](CCCCN)C(=O)N[C@@H](C)C(=O)N[C@@H](C)C(=O)N[C@@H](C)C(=O)N[C@@H](CCCCN)C(=O)N[C@@H](C)C(=O)N[C@@H](C)C(=O)N[C@@H](C)C(=O)N[C@@H](CCCCN)C(=O)N[C@@H](C)C(=O)N[C@@H](C)C(=O)N[C@@H](CCCCN)C(N)=O [lipopeptide 6, (CH3—(CH2)14—CO—)-Lys-Ala-Ala-Ala-Lys-Ala-Ala-Ala-Lys-Ala-Ala-Lys-NH2] (Palmitoyl-KAAAKAAAKAAK-NH2) | – | – | – | – | – | – | – | – | 25 | 100 | 50 | 50 | 25 | 50 | 3.125 | 1.56 | 12.5 | do not exhibit significant hemolytic activity |
